{
  "source": "ChEMBL document CHEMBL1201862",
  "about": "“PubChem BioAssay data set” (2004)",
  "key": {"[1]": {"tested_on": "Streptococcus sp. 'group A'", "assay": "growth inhibition of control SK(-) GAS strain, dose response, counter-screen for streptokinase expression inhibitor project, luminescence, kanamycin, BacTiterGlo, confirmation (AID 1900)", "assay_type": "functional, organism-based"}, "Streptokinase A": {"molecular_target": "T1, Streptokinase A (Streptococcus pyogenes serotype M1, UniProt P10520)", "T1 sequence (P10520 whole entry)": "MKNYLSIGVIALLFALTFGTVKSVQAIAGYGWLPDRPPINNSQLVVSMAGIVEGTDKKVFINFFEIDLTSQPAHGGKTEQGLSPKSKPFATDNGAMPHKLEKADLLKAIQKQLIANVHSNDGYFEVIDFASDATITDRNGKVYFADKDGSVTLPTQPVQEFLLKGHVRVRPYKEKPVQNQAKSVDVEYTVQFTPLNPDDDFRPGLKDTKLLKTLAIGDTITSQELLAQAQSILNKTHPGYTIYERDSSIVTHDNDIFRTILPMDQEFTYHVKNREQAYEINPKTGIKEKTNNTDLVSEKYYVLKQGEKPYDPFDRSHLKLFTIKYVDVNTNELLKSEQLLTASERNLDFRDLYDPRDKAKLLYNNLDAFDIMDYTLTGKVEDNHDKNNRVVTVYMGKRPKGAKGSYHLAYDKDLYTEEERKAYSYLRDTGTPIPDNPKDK", "assay": "S. pyogenes streptokinase expression inhibitors, potency, dose response, plasminogen activation absorbance, OD405 (AID 1914);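 further: secreted streptokinase activity via plasminogen activation per viability signal from cell pellet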", "assay_type": "functional, Streptococcus pyogenes M1 GAS"}, "Streptococcus": {"tested_on": "Streptococcus", "assay": "Group A Streptococcus viability loss, dose response, counter-screen for streptokinase expression inhibitor project, luminescence, BacTiterGlo (AID 1915)", "assay_type": "functional, organism-based"}, "[2]": {"assay": "HepG2 hepatoma cell cytotoxicity, dose response, cytotoxicity control, CellTiter-Glo luminescence, dry powder, set 3 (AID 720594)", "assay_type": "functional, cell-based"}, "[3]": {"assay": "HEK293T cell cytotoxicity, dose response, cytotoxicity control, CellTiter-Glo luminescence, dry powder, set 2 (AID 720595)", "assay_type": "functional, cell-based", "details": "HEK293"}, "[4]": {"assay": "AlphaScreen signal interference by compounds, dose response, artefact control for ARNT/TACC3 disruptor project, biochemical, dual-tagged ARNT, dry powder (AID 720564)"}, "[5]": {"assay": "Luminescence-based cell-based high throughput dose response assay to identify activators of the DAF-12 from the parasite S. stercoralis (ssDAF-12).", "assay_type": "functional"}, "[6]": {"molecular_target": "Oxysterols receptor LXR-beta (Homo sapiens, UniProt P55055)", "sequence (P55055 whole entry, the tested form may be a part)": "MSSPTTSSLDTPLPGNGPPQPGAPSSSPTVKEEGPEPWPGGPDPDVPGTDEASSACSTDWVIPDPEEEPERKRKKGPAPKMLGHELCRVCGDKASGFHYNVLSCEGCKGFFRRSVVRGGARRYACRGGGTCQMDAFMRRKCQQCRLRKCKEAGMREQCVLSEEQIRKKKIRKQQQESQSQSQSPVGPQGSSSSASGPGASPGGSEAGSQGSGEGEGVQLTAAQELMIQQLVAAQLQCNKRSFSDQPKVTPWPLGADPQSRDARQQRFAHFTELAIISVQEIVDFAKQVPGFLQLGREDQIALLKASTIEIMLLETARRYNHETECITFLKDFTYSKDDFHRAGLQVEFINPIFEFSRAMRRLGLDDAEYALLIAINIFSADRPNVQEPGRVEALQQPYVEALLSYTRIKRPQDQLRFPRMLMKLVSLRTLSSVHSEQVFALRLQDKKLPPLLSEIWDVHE", "assay": "LXR agonists, Gal4 luciferase reporter, dose response, counter-screen for ssDAF-12 agonist project, cell-based, luminescence, HEK293, S. stercoralis campaign (AID 720737)", "assay_type": "functional", "details": "read-out: IC50 (the source's name)"}, "Paired box protein Pax-8": {"molecular_target": "Paired box protein Pax-8 (Homo sapiens, UniProt Q06710)", "sequence (Q06710 whole entry)": "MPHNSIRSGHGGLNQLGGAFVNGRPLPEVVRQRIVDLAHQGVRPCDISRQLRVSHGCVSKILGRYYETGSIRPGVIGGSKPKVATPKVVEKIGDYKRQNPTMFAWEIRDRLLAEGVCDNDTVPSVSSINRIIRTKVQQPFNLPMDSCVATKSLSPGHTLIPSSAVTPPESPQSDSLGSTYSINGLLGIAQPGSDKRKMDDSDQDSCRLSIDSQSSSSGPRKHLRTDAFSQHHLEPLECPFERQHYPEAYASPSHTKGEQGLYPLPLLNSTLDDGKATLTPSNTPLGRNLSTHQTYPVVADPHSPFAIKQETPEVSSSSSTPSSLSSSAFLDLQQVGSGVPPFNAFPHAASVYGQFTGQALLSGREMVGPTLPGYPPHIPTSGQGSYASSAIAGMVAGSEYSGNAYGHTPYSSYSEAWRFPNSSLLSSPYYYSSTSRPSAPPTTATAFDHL", "assay": "inhibitors of PAX8-driven TPO luciferase reporter, dose response, RMG-I cells, cherry-pick (AID 687027);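 further: luciferase reporter driven by Pax8 target thyroperoxidase promoter measured by SteadyGlo luminescence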", "assay_type": "functional, cell-based"}, "[7]": {"assay": "NIH:OVCAR-3 ovarian cancer cell cytotoxicity, dose response, PAX8 inhibitor project, plate reader, dry powder samples (AID 743044)", "assay_type": "functional, cell-based"}, "[8]": {"assay": "IGROV1 ovarian cancer cell cytotoxicity, dose response, PAX8 inhibitor project, plate reader, dry powder samples (AID 743043)", "assay_type": "functional, cell-based", "details": "IGROV-1"}, "[9]": {"assay": "non-specific cell cytotoxicity, dose response, cytotoxicity control for PAX8 inhibitor project, plate reader, dry powder samples (AID 743021)", "assay_type": "functional, cell-based"}, "[10]": {"molecular_target": "Muscarinic acetylcholine receptor M5 (Homo sapiens, UniProt P08912)", "sequence (P08912 whole entry)": "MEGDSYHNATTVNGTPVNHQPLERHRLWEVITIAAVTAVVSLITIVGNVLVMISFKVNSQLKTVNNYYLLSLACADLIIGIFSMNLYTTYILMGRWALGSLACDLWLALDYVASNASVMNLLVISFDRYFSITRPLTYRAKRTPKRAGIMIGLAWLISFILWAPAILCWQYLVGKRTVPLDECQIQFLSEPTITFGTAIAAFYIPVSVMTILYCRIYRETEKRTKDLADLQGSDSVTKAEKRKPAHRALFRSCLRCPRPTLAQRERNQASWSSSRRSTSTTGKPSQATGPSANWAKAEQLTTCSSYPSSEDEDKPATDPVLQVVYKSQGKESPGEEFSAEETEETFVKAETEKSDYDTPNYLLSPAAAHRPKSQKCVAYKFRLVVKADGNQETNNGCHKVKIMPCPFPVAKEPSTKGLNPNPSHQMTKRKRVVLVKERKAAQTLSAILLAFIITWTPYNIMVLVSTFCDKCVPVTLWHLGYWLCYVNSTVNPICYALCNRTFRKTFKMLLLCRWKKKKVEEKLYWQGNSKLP", "assay": "M5 receptor positive allosteric modulators, dose response, cell-based, concentration-response curve (AID 651878)", "assay_type": "functional"}, "[11]": {"assay": "P. falciparum 3D7-ScDHODH growth inhibitors, dose response, SYBR Green, dry powder samples (AID 1159570);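 further: parasite growth measured after 72 hours of compound exposure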", "assay_type": "functional, cell-based"}, "[12]": {"assay": "HepG2 cell cytotoxicity, dose response, cytotoxicity control, plate reader, dry powder samples (AID 1159569);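 further: inhibitor potency with signal falling toward the positive control level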", "assay_type": "functional, cell-based"}, "[13]": {"assay": "P. falciparum Dd2 growth inhibitors, dose response, SYBR Green, dry powder samples, set 4 (AID 1159572)", "assay_type": "functional, cell-based"}, "[14]": {"assay": "P. falciparum Dd2 growth inhibitors, dose response, SYBR Green, cherry-picked samples (AID 1159567)", "assay_type": "functional, cell-based"}, "[15]": {"assay": "P. falciparum Dd2 blood-stage growth inhibition, dose response, SYBR Green fluorescence, erythrocytes, dry powder, set 2 (AID 1159574)", "assay_type": "functional, cell-based"}, "[16]": {"assay": "P. falciparum Dd2 growth inhibitors, dose response, SYBR Green, dry powder samples (AID 1159566)", "assay_type": "functional, cell-based"}, "[17]": {"assay": "HepG2 cell cytotoxicity, dose response, cytotoxicity control, cherry-picked samples (AID 1159577)", "assay_type": "functional, cell-based"}, "[18]": {"assay": "P. falciparum ATP4 D1247Y mutant growth inhibitors, dose response, NITD609-resistant line, SYBR Green, dry powder (AID 1159571);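 further: parasites synchronized at ring stage by sorbitol before testing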", "assay_type": "functional, cell-based"}, "[19]": {"assay": "P. falciparum Dd2 growth inhibitors, dose response, SYBR Green, dry powder samples, set 9 (AID 1159568)", "assay_type": "functional, cell-based"}, "[20]": {"molecular_target": "NAD-dependent protein deacylase sirtuin-5, mitochondrial (Homo sapiens, UniProt Q9NXA8)", "sequence (Q9NXA8 whole entry)": "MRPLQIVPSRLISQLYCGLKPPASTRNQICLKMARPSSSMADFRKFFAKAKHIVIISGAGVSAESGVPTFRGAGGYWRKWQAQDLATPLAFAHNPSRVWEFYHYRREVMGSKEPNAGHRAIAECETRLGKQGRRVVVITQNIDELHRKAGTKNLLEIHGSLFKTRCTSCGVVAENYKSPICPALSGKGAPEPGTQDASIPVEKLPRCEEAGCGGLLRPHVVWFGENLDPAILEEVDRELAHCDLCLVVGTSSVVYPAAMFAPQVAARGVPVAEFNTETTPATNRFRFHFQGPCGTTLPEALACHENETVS", "assay": "SIRT5 desuccinylase inhibitors, dose response, biochemical, fluorescence imaging, cherry-pick, set 5 (AID 720591);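 further: desuccinylation of succinyl peptide AMC substrate read as fluorescence after trypsin release; potency of inhibitors that lower fluorescence and may act on trypsin instead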"}, "[21]": {"assay": "HeLa 2N DNA content increase, dose response, cell-based, IC50 (AID 1117349)", "assay_type": "functional"}, "[22]": {"assay": "Concentration-dependent survival of SW480 colon cancer line, luminescence detection with CellTiter-Glo, half-maximal inhibitory concentration (AID 1117338)", "assay_type": "functional"}, "[23]": {"assay": "RKO cell viability reduction, dose response, CellTiter-Glo luminescence (AID 1117322)", "assay_type": "functional"}, "[24]": {"assay": "cytotoxicity toward HCT116 cells – cell-based, CellTiter-Glo luminescence, IC50, dose response (AID 1117332)", "assay_type": "functional", "details": "HCT-116"}, "[25]": {"assay": "SNU-C1 cell viability reduction, dose response, CellTiter-Glo luminescence (AID 1117323)", "assay_type": "functional, cell-based"}, "[26]": {"assay": "cytotoxicity toward Colo320 cells – cell-based, CellTiter-Glo luminescence, IC50, dose response (AID 1117334)", "assay_type": "functional", "details": "COLO 320"}, "[27]": {"assay": "HeLa 4N DNA content increase, dose response, cell-based, IC50 (AID 1117351)", "assay_type": "functional"}, "[28]": {"assay": "cytotoxicity toward HT-29 cells – cell-based, CellTiter-Glo luminescence, IC50, dose response (AID 1117330)", "assay_type": "functional"}, "[29]": {"assay": "CellTiter-Glo luminescent dose response of DLD-1 viability loss (AID 1117352)", "assay_type": "functional"}, "[30]": {"assay": "HCT116 cell viability decrease, GSK3B pretreatment – CellTiter-Glo, IC50, dose response (AID 1117339)", "assay_type": "functional", "details": "HCT-116"}},
  "note": "Activity calls are given as the source filed them. Where a SMILES comes first, the peptide text is derived from it. Bridges are numbered along the chain shown (N, C = ends). [ ]: non-standard residue; d: D form. The star is where a group is joined. bishTyr = N[C@@H](CCCc1ccc(O)cc1)C(=O)O; Tigloyl = C/C=C(\\C)C(=O)*; Dhb = C/C=C(\\N)C(=O)O",
  "data": [
    {"smiles": "CC1CCCN(S(=O)(=O)c2ccc(C(=O)Nc3nnc(C4=COCCO4)o3)cc2)C1", "note": "(stereo not drawn)", "values": [
      {"measurement": "EC50", "setting": "[1]", "value": "4.77 µM (active)"},
      {"measurement": "EC50", "setting": "Streptokinase A", "value": "> 150 µM (not active)"},
      {"measurement": "EC50", "setting": "Streptococcus", "value": "98.4 µM (active)"},
      {"measurement": "AC50", "setting": "[2]", "value": "> 52 µM (inactive)"},
      {"measurement": "AC50", "setting": "[3]", "value": "27.6 µM (active)"},
      {"measurement": "AC50", "setting": "[4]", "value": "101 µM (active)"}
    ]},
    {"smiles": "COCCNC(=O)Cn1nc(-c2ccc(Cl)cc2)c2ccccc2c1=O", "values": [
      {"measurement": "IC50", "setting": "[5]", "value": "> 67.5 µM (inactive)"},
      {"measurement": "EC50", "setting": "[6]", "value": "> 67.5 µM (inactive)"}
    ]},
    {"smiles": "C[C@@H]1CN([C@@H](C)CO)C(=O)Cc2cc(NS(=O)(=O)c3ccc(Cl)cc3)ccc2O[C@@H]1CN(C)CC1CCCCC1", "values": [
      {"measurement": "AC50", "setting": "Paired box protein Pax-8", "value": "11.7 µM (active)"},
      {"measurement": "AC50", "setting": "[7]", "value": "21.2 µM (active)"},
      {"measurement": "AC50", "setting": "[8]", "value": "46.2 µM (active)"},
      {"measurement": "AC50", "setting": "[9]", "value": "41.9 µM (active)"}
    ]},
    {"smiles": "O=C1C(=O)N(CCCOc2ccccc2)c2ccc(OC(F)(F)F)cc21", "values": [
      {"measurement": "EC50", "setting": "[10]", "value": "1.97 µM (active)"}
    ]},
    {"smiles": "COc1ccc2c3c([nH]c2c1)[C@H](CO)N(C(C)=O)CC31CCN(C(=O)Nc2ccccc2F)CC1", "values": [
      {"measurement": "AC50", "setting": "[11]", "value": "0.0263 µM (active)"},
      {"measurement": "AC50", "setting": "[12]", "value": "46.9 µM (active)"},
      {"measurement": "AC50", "setting": "[13]", "value": "0.101 µM (active)"},
      {"measurement": "AC50", "setting": "[14]", "value": "< 0.3 µM (active)"},
      {"measurement": "AC50", "setting": "[15]", "value": "0.0828 µM (active)"},
      {"measurement": "AC50", "setting": "[16]", "value": "0.0279 µM (active)"},
      {"measurement": "AC50", "setting": "[17]", "value": "33.4 µM (active)"},
      {"measurement": "AC50", "setting": "[18]", "value": "0.0166 µM (active)"}
    ]},
    {"smiles": "C[C@@H]1CCCCO[C@H](CN(C)S(=O)(=O)c2ccccc2)[C@@H](C)CN([C@H](C)CO)C(=O)c2cc(NC(=O)Nc3ccc4c(c3)OCO4)ccc2O1", "values": [
      {"measurement": "AC50", "setting": "[19]", "value": "8.49 µM (active)"}
    ]},
    {"smiles": "C/C=C1\\NC(=O)[C@H](C)NC(=O)[C@@H](NC(=O)[C@H](Cc2ccc(O)cc2)NC(=O)[C@@H](NC(=O)/C(C)=C/C)C(C)C)[C@@H](C)OC(=O)[C@H](CCCc2ccc(O)cc2)NC(=O)[C@@H](CCC(=O)O)NC1=O", "note": "(Tigloyl-VYTA[Dhb][dE][bishTyr]; ester 3-C)", "values": [
      {"measurement": "AC50", "setting": "[20]", "value": "12.6 µM (active)"}
    ]},
    {"smiles": "O=C(c1cc(O)c(O)c(O)c1)c1ccc(O)c(O)c1O", "note": "[EXIFONE]", "values": [
      {"measurement": "IC50", "setting": "[21]", "value": "> 10 µM (inactive)"},
      {"measurement": "IC50", "setting": "[22]", "value": "9.95 µM (inactive)"},
      {"measurement": "IC50", "setting": "[23]", "value": "0.192 µM (active)"},
      {"measurement": "IC50", "setting": "[24]", "value": "16.3 µM (inactive)"},
      {"measurement": "IC50", "setting": "[25]", "value": "12.8 µM (inactive)"},
      {"measurement": "IC50", "setting": "[26]", "value": "9.38 µM (inactive)"},
      {"measurement": "IC50", "setting": "[27]", "value": "> 10 µM (inactive)"},
      {"measurement": "IC50", "setting": "[28]", "value": "9.45 µM (inactive)"},
      {"measurement": "IC50", "setting": "[29]", "value": "11.9 µM (inactive)"},
      {"measurement": "IC50", "setting": "[30]", "value": "0.0691 µM (active)"}
    ]}
  ]
}
